The source of these data is patent US12486267B2, “Imidazo[1,2-A]pyridine and [1,2,4]triazolo[1,5-A]pyridine derivatives as TLR9 inhibitors for the treatment of fibrosis” (BRISTOL-MYERS SQUIBB COMPANY, priority 2020, dated 2025).

Format in all cases: cell-based
One test addresses T1, human TLR7 (Homo sapiens, UniProt Q9NYK1).
T1 sequence (Q9NYK1 27-1049): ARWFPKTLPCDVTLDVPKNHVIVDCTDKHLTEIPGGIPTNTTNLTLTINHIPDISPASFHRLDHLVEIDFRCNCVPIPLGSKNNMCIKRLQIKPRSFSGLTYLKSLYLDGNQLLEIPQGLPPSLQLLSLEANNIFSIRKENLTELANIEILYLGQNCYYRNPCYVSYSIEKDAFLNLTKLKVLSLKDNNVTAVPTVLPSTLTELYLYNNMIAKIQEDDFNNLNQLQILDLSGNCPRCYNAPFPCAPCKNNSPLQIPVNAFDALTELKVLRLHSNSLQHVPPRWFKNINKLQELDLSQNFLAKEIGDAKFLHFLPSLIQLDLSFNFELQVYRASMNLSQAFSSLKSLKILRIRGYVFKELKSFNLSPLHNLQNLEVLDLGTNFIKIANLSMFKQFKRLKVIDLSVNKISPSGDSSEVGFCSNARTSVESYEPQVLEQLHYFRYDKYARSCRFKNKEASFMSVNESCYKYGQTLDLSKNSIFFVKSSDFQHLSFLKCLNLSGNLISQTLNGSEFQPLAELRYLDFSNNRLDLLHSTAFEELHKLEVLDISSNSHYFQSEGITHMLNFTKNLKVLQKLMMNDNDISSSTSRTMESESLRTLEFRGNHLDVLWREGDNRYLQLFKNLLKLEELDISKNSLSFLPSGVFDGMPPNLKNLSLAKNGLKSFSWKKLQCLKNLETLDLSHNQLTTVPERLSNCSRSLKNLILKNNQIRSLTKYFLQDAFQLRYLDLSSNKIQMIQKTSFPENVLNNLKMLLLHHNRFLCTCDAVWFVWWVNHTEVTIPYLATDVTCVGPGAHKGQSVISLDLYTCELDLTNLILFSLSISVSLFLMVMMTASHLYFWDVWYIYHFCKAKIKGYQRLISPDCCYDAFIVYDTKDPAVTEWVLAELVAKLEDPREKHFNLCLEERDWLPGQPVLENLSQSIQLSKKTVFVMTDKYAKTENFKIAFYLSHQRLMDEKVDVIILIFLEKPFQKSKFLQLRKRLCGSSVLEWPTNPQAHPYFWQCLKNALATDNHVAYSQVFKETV
In words: TLR7 inhibition reporter assay (HEK-Blue cells, SEAP reporter). To be noted: HEK-Blue cells overexpressing human TLR7; stimulated with gardiquimod 7.5 μM; 22 hour incubation; SEAP readout. The method, then:
(§1) TLR7/8/9 Inhibition Reporter Assays
(§2) HEK-Blue™-cells (Invivogen) overexpressing human TLR7, TLR8 or TLR9 receptors were used for screening inhibitors of these receptors using an inducible SEAP (secreted embryonic alkaline phosphatase) reporter gene under the control of the […] minimal promoter fused to five NF-κB and AP-1-binding sites. Briefly, cells are seeded into Greiner 384 well plates (15000 cells per well for TLR7, 20,000 for TLR8 and 25,000 for TLR9) and then treated with test compounds in DMSO to yield a final dose response concentration range of 0.05 nM-50 μM. After a 30 minute compound pre-treatment at room temperature, the cells are then stimulated with a TLR7 ligand (gardiquimod at a final concentration of 7.5 μM), TLR8 ligand (R848 at a final concentration of 15.9 μM) or TLR9 ligand (ODN2006 at a final concentration of 5 nM) to activate NF-κB and AP-1 which induce the production of SEAP. After a 22 hour incubation at 37° C., 5% CO2, SEAP levels are determined with the addition of HEK-Blue™ Detection reagent (Invivogen), a cell culture medium that allows for detection of SEAP, according to manufacturer's specifications. The percent inhibition is determined as the % reduction in the HEK-Blue signal present in wells treated with agonist plus DMSO alone compared to wells treated with a known inhibitor.

The target of a further test is T2, human TLR9 (Homo sapiens, UniProt Q9NR96).
T2 sequence (Q9NR96 26-1032): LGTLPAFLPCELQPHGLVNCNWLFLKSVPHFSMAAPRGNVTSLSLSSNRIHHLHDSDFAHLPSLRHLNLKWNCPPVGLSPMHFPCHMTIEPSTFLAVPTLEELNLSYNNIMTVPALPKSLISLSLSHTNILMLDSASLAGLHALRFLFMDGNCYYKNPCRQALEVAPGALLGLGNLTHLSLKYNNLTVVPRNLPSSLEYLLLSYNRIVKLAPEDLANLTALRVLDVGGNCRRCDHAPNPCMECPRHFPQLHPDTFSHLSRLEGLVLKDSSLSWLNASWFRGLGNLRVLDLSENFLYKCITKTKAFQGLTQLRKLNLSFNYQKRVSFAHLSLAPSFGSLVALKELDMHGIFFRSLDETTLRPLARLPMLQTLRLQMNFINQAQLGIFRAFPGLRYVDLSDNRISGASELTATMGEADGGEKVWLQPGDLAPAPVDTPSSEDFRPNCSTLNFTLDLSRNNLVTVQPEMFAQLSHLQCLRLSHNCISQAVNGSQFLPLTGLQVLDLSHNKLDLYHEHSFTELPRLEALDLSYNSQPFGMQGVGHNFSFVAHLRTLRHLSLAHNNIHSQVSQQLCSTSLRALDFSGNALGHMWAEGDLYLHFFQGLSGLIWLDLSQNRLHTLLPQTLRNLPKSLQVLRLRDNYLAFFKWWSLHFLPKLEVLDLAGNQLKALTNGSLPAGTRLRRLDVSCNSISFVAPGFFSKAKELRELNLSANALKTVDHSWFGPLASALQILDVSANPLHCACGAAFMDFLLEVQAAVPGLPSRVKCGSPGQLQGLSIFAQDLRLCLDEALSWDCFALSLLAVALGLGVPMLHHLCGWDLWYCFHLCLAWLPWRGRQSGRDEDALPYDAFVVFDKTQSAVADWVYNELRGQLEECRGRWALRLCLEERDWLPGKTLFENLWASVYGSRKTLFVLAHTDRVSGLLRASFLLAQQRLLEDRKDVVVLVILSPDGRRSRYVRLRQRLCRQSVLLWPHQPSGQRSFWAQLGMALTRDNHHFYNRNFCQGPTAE
Put plainly: TLR9 inhibition reporter assay (HEK-Blue cells, SEAP reporter). To be noted: HEK-Blue cells overexpressing human TLR9; stimulated with ODN2006 5 nM; 22 hour incubation; SEAP readout. An outline of the steps:
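HEK-Blue cells with NF-κB/AP-1-driven SEAP pre-treated 30 min with compound (0.05 nM–50 μM), then stimulated with gardiquimod 7.5 μM (TLR7), R848 15.9 μM (TLR8) or ODN2006 5 nM (TLR9). SEAP detected after 22 h at 37 °C; percent inhibition relative to agonist-plus-DMSO and known-inhibitor wells.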

The target of a further test is T3, human TLR8 (Homo sapiens, UniProt Q9NR97).
T3 sequence (Q9NR97 27-1041): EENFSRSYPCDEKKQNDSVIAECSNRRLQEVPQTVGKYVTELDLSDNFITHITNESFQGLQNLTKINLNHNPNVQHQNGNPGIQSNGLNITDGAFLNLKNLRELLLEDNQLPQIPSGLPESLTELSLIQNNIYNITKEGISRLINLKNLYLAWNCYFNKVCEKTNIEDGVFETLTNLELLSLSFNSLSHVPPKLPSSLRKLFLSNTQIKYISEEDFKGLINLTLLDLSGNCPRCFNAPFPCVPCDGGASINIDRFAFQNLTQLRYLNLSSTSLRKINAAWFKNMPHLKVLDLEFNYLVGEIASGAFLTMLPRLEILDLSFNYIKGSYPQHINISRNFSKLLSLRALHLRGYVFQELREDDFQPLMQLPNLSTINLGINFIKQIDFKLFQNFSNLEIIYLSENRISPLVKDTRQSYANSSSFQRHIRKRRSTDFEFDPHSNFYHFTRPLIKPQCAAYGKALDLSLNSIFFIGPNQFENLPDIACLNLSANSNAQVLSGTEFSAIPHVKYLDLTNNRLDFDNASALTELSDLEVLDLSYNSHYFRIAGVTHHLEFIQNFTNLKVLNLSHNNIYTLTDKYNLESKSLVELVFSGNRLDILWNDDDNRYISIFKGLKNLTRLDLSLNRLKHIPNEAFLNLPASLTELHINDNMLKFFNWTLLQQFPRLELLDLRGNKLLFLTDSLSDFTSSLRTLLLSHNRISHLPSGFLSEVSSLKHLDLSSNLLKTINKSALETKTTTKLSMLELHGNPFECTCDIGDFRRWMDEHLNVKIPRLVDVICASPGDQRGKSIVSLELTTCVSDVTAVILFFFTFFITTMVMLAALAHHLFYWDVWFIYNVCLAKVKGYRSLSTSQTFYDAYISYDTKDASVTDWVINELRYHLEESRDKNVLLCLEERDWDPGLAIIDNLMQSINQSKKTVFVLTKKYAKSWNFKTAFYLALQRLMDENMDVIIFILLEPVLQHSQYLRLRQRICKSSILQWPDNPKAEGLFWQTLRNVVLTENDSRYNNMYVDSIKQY
Put plainly: TLR8 inhibition reporter assay (HEK-Blue cells, SEAP reporter). To be noted: HEK-Blue cells overexpressing human TLR8; stimulated with R848 15.9 μM; 22 hour incubation; SEAP readout. The method, then:
as §1, §2

Structures are written as SMILES. Where only a bound is given, the exact number is not on record here.

As for `Cc1cc(C2CCN(C3CCN(C(C)C)CC3)CC2)cn2cc(-c3ccc(S(C)(=O)=O)cc3)nc12` [Example 8, 6-(1′-isopropyl-[1,4′-bipiperidin]-4-yl)-8-methyl-2-(4-(methylsulfonyl)phenyl) imidazo[1,2-a]pyridine], the IC50 against human TLR7 was 2.3 µM; on human TLR9, 21 nM; on human TLR8, greater than 50 µM.

Regarding `CC(C)N1C2CCC1CC(N1CCC(c3cc(F)c4nc(-c5ccc(S(C)(=O)=O)cc5)cn4c3)CC1)C2` (single isomer, unassigned) [Example 69, 8-fluoro-6-(1-(8-isopropyl-8-azabicyclo[3.2.1]octan-3-yl)piperidin-4-yl)-2-(4-(methylsulfonyl)phenyl)imidazo[1,2-a]pyridine], the IC50 on human TLR7 was 3.4 µM; at human TLR9, 26 nM; at human TLR8, greater than 50 µM.

For the molecule `CS(=O)(=O)c1ccc(-c2cn3cc(C4CCN(C5CCN(CC6CC6)CC5)CC4)cc(F)c3n2)cc1` [Example 109, 6-(1′-(cyclopropylmethyl)-[1,4′-bipiperidin]-4-yl)-8-fluoro-2-(4-(methylsulfonyl)phenyl)imidazo[1,2-a]pyridine], the IC50 against human TLR7 is 1.3 µM; against human TLR9, 4.3 nM; against human TLR8, greater than 50 µM.

As to `COc1ccc(-c2cn3c(n2)CCC(C2CCN(C4CC5(C4)CN(C(C)C)C5)CC2)C3)cc1OC` (single isomer, unassigned) [Example 47, 2-(3,4-dimethoxyphenyl)-6-(1-(2-isopropyl-2-azaspiro[3.3]heptan-6-yl)piperidin-4-yl)-5,6,7,8-tetrahydroimidazo[1,2-a]pyridine], the IC50 against human TLR7 is greater than 50 µM; on human TLR9 it was 47 nM; against human TLR8, greater than 50 µM.

Regarding `CC(C)N1CCC(N2CCC(c3ccc4nc(-c5ccc(S(C)(=O)=O)cc5)cn4c3F)CC2)CC1` [Example 73, 5-fluoro-6-(1′-isopropyl-[1,4′-bipiperidin]-4-yl)-2-(4-(methylsulfonyl)phenyl) imidazo[1,2-a]pyridine], the IC50 against human TLR7 was greater than 50 µM; on human TLR9 it was 106 nM; against human TLR8, 23 µM.

Turning to `Cc1cc(C2CCN(C3CC4CCC(C3)N4CC3CC3)CC2)cn2cc(-c3ccc(S(C)(=O)=O)cc3)nc12` (single isomer, unassigned) [Example 87, 6-(1-(8-(cyclopropylmethyl)-8-azabicyclo[3.2.1]octan-3-yl)piperidin-4-yl)-8-methyl-2-(4-(methylsulfonyl)phenyl) imidazo[1,2-a]pyridine], the 50% inhibitory concentration (IC50) is 4.4 µM against human TLR7, 28 nM at human TLR9 and greater than 25 µM on human TLR8.

Regarding `COc1ccc(-c2cn3cc(C4C[C@H]5CC[C@@H](C4)N5C4CCN(C5CC5)CC4)cc(C)c3n2)cc1OC` (mixture of isomers) [Example 24, 6-(8-(1-cyclopropylpiperidin-4-yl)-8-azabicyclo[3.2.1]octan-3-yl)-2-(3,4-dimethoxyphenyl)-8-methylimidazo[1,2-a]pyridine], the IC50 against human TLR7 was 2.9 µM; against human TLR9, 102 nM; at human TLR8, greater than 50 µM.

As to `CS(=O)(=O)c1ccc(-c2cn3cc(C4CCN(C5CC6CCC(C5)N6C5CCC5)CC4)cc(F)c3n2)cc1` (single isomer, unassigned) [Example 117, 6-(1-(8-cyclobutyl-8-azabicyclo[3.2.1]octan-3-yl)piperidin-4-yl)-8-fluoro-2-(4-(methylsulfonyl)phenyl)imidazo[1,2-a]pyridine], the figures for the half-maximal inhibitory concentration (IC50) on human TLR7, against human TLR9 and on human TLR8 were 1.5 µM, 22 nM and 20 µM, respectively.

With `CC(C)N1CCC(N2CCC(c3cn4cc(-c5ccc(S(C)(=O)=O)cc5)nc4cc3F)CC2)CC1` [Example 70, 7-fluoro-6-(1′-isopropyl-[1,4′-bipiperidin]-4-yl)-2-(4-(methylsulfonyl)phenyl) imidazo[1,2-a]pyridine], the results for the half-inhibitory concentration (IC50) against human TLR7, on human TLR9 and against human TLR8 were 22.9 µM, 303 nM and greater than 50 µM, respectively.
